From ChEMBL document CHEMBL5214899, “Tailor-made amino acids in the design of small-molecule blockbuster drugs” (Eur J Med Chem, 2021) come the findings set out here.

The EC50 is the midpoint of the concentration-response curve. For orientation: IC50 means the midpoint of a concentration-inhibition curve. In general, EC90 refers to the concentration needed for an effect of 90%.

The subject of test [1] is Human immunodeficiency virus 1. Put plainly: Antiviral activity against HIV-1 IIIb infected in human MT2 cells assessed as reduction in virus induced cytopathic effect and measured after 5 days by XTT assay. It is filed as functional, organism-based. The note with it: Human immunodeficiency virus 1, IIIb, MT2, 120 h. A general note: Protection from cytopathic effect is a common read-out in antiviral testing.

Test [2] in a line: Inhibition of TNF-alpha release in LPS stimulated human PBMC. The format is functional, cell-based.
Test [3] deals with SARS-CoV. The test can be described thus: Antiviral activity against SARS 2019-nCoV infected in African green monkey Vero E6 cells assessed as inhibition of viral infection preincubated and measured after 48 hrs by qRT-PCR analysis. The format is functional. Particulars: Severe acute respiratory syndrome-related coronavirus, Vero C1008.

Each structure is given as a SMILES string.

Regarding `C[C@H](Cn1cnc2c(N)ncnc21)OCP(=O)(O)N[C@H](C)C(=O)O`, the half-maximal effective concentration (EC50) in test [1] came to 10 µM. In test [2], `Nc1cccc2c1CN(C1CCC(=O)NC1=O)C2=O` (centres undefined) [LENALIDOMIDE] had an IC50 of 0.1 µM. With `CCC(CC)COC(=O)[C@H](C)N[P@](=O)(OC[C@H]1O[C@@](C#N)(c2ccc3c(N)ncnn23)[C@H](O)[C@@H]1O)Oc1ccccc1` [REMDESIVIR], in test [3], the concentration for an effect of 90% (EC90) came out at 1.76 µM.

Take `C[C@H](Cn1cnc2c(N)ncnc21)OCP(=O)(O)O` [TENOFOVIR ANHYDROUS]: the EC50 in test [1] was 5 µM.
